Source: patent US20100087457A1, “DOSAGES AND METHODS FOR THE TREATMENT OF CANCER” (Myriad Pharmaceuticals, Inc, priority 2007, published 2010)
Counter-ions that a name gives are not always drawn. Like-named read-outs stand apart in the source and are kept apart here.

Columns and labels:
[1] = Phase I clinical trial: plasma concentrations after weekly intravenous infusion (pharmacokinetics); format: in vivo, human; conditions: human, plasma, iv; for concentration at 1 h / concentration at 1 h after end of infusion: 1 hr after infusion; for concentration at 24 h after end of infusion / concentration at 24 h: 24 hr after infusion; for concentration at 12 h after end of infusion / concentration at 12 h: 12 hr after infusion; for concentration at 2 h / concentration at 2 h after end of infusion: 2 hr after infusion; for concentration at 4 h / concentration at 4 h after end of infusion: 4 hr after infusion; for Cmax: intravenous administration of a single dose, read-out: estimated Cmax
Experimental: (§1) An open-label, dose-escalating, multiple-dose study to define the safety, tolerability and pharmacokinetics of weekly intravenous administration of (4-Methoxy-phenyl)-methyl-(2-methyl-quinazolin-4-yl)-amine hydrochloride was performed. A dosing schedule (each 4 week cycle) was performed for (4-Methoxy-phenyl)-methyl-(2-methyl-quinazolin-4-yl)-amine hydrochloride weekly for 3 weeks with no infusion on the fourth week of each cycle. Subjects with refractory solid tumors were enrolled in cohorts of 3. During Cycle 1, subjects were hospitalized during each infusion of (4-Methoxy-phenyl)-methyl-(2-methyl-quinazolin-4-yl)-amine hydrochloride and remained for observation and safety evaluation for approximately 24 hours following the end of the infusion. All subjects had continuous telemetry for 2 hours prior to infusion, for 1-2 hour infusion and for 3 hours after the end of the infusion. Any clinically significant electrocardiographic (ECG) wave form abnormality was recorded and prolongation of the monitoring period extended at the discretion of the principal investigator.
Blood samples were collected prior to dosing, at the end of the infusion, and 1, 2, 4, 6, 12, and 24 hours after the infusion. This sampling schedule occurred on Days 1 and 15 with administration of the first and third doses. Samples were collected into tubes containing EDTA and stored on ice until centrifuged. The plasma was frozen at approximately −20° C. in labeled, plastic tubes, or vials, and tightly capped. The samples were shipped to Myriad Pharmaceuticals, Inc. for analysis of (4-Methoxy-phenyl)-methyl-(2-methyl-quinazolin-4-yl)-amine hydrochloride. Pharmacokinetic analysis was conducted using WinNonlin 4.0®.

[2] = Phase I clinical trial: safety and tolerability in subjects with refractory solid tumors; format: in vivo, human
Experimental: as §1
Electrocardiograms were obtained prior to starting the infusion and within 30 minutes of the end of infusion for each infusion of the first cycle. Electrocardiograms on Day 1 were obtained in triplicate 5 minutes apart.
Neurocognitive assessments were made by administration of the Mini-Mental State Examination (MMSE), the Hopkins Verbal Learning and timed Grooved Pegboard tests before administration of the intravenous infusion and approximately 24 hours of the infusion at each weekly administration of the first cycle.
On days 1, 8, and 15 of each cycle, vital signs were obtained prior to the first dose, at 15, 30, and 60 minutes after the initiation of the infusion, and at 0.5, 1, 1.5, 2, and 4 hours after the end of the intravenous infusion. Vital signs at all time points beyond the start of the intravenous infusion included heart rate, blood pressure and respirations. Temperature was measured at the end of the infusion and 4 hours later.
Individual subjects were allowed to continue on repeated weekly×3 administrations every 28 days with no dose increase provided there was no unacceptable toxicity or disease progression.
Tumor response was evaluated by response evaluation criteria in solid tumors (RECIST) criteria. To prevent sever hypersensitivity reactions due to Cremophor® EL, subjects were premedicated with oral dexamethasone (20 mg) administered approximately 12 and 6 hours before the intravenous infusion with (4-Methoxy-phenyl)-methyl-(2-methyl-quinazolin-4-yl)-amine hydrochloride, diphenhydramine (50 mg) or its equivalent administered intravenously 30-60 minutes before (4-Methoxy-phenyl)-methyl-(2-methyl-quinazolin-4-yl)-amine hydrochloride, and cimetidine (300 mg) or ranitidine (50 mg) administered intravenously 30-60 minutes before (4-Methoxy-phenyl)-methyl-(2-methyl-quinazolin-4-yl)-amine hydrochloride.

[3] = 1 mg/m^2, Day 1, 1.0 mg/m^2 i.v., infusion 1 hr, LLOQ 1 ng/mL
[4] = 1 mg/m^2, Day 15, 1.0 mg/m^2 i.v., infusion 1 hr, LLOQ 1 ng/mL
[5] = 1.5 mg/m^2, Day 15, 1.5 mg/m^2 i.v., infusion 1 hr, LLOQ 1 ng/mL
[6] = 2.1 mg/m^2, Day 1, 2.1 mg/m^2 i.v., infusion 1 hr, LLOQ 1 ng/mL
[7] = 2.1 mg/m^2, Day 15, 2.1 mg/m^2 i.v., infusion 1 hr, LLOQ 1 ng/mL
[8] = 2.7 mg/m^2, Day 1, 2.7 mg/m^2 i.v., infusion 1 hr, LLOQ 1 ng/mL
[9] = 3.3 mg/m^2, Day 1, 3.3 mg/m^2 i.v., infusion 2 hr, LLOQ 1 ng/mL
[10] = 3.3 mg/m^2, Day 15, 3.3 mg/m^2 i.v., infusion 2 hr, LLOQ 1 ng/mL
[11] = 3.9 mg/m^2, Day 15, 3.9 mg/m^2 i.v., infusion 2 hr, LLOQ 1 ng/mL
[12] = 4.5 mg/m^2, Day 15, 4.5 mg/m^2 i.v., infusion 2 hr, LLOQ 1 ng/mL

COc1ccc(N(C)c2nc(C)nc3ccccc23)cc1 [(4-Methoxy-phenyl)-methyl-(2-methyl-quinazolin-4-yl)-amine hydrochloride]
concentration at 1 h ([1]; 0.3 mg/m^2, Day 15, 0.3 mg/m^2 i.v., infusion 1 hr, LLOQ 1 ng/mL): 1.43 ng/mL
concentration at 24 h after end of infusion ([1]; 0.6 mg/m^2, Day 1, 0.6 mg/m^2 i.v., infusion 1 hr, LLOQ 1 ng/mL): 5.89 ng/mL
concentration at 12 h after end of infusion [1, 3]: 3.62 ng/mL
concentration at 24 h after end of infusion [1, 3]: 1.98 ng/mL
concentration at 1 h [1, 4]: 2.24 ng/mL
concentration at 2 h [1, 4]: 1.23 ng/mL
concentration at 4 h [1, 4]: 1.26 ng/mL
concentration at 12 h after end of infusion ([1]; 1.5 mg/m^2, Day 1, 1.5 mg/m^2 i.v., infusion 1 hr, LLOQ 1 ng/mL): 1.95 ng/mL
concentration at 4 h [1, 5]: 1.01 ng/mL
concentration at 6 h ([1]; 1.5 mg/m^2, Day 15, 1.5 mg/m^2 i.v., infusion 1 hr, 6 hr after infusion, LLOQ 1 ng/mL): 1.47 ng/mL
concentration at 12 h [1, 5]: 2.24 ng/mL
concentration at 24 h [1, 5]: 1.63 ng/mL
concentration at 1 h after end of infusion [1, 6]: 4.06 ng/mL
concentration at 2 h after end of infusion [1, 6]: 3.28 ng/mL
concentration at 4 h after end of infusion [1, 6]: 2.64 ng/mL
concentration at 6 h after end of infusion ([1]; 2.1 mg/m^2, Day 1, 2.1 mg/m^2 i.v., infusion 1 hr, 6 hr after infusion, LLOQ 1 ng/mL): 1.12 ng/mL
concentration at 12 h after end of infusion [1, 6]: 1.09 ng/mL
concentration at 1 h [1, 7]: 4.81 ng/mL
concentration at 4 h [1, 7]: 2.05 ng/mL
concentration at 12 h [1, 7]: 1.09 ng/mL
concentration at 24 h [1, 7]: 2.63 ng/mL
concentration at 1 h after end of infusion [1, 8]: 6.16 ng/mL
concentration at 2 h after end of infusion [1, 8]: 4.37 ng/mL
concentration at 4 h after end of infusion [1, 8]: 3.16 ng/mL
concentration at 6 h after end of infusion ([1]; 2.7 mg/m^2, Day 1, 2.7 mg/m^2 i.v., infusion 1 hr, 6 hr after infusion, LLOQ 1 ng/mL): 2.09 ng/mL
concentration at 12 h after end of infusion [1, 8]: 2.35 ng/mL
concentration at 24 h after end of infusion [1, 8]: 1.36 ng/mL
concentration at 12 h ([1]; 2.7 mg/m^2, Day 15, 2.7 mg/m^2 i.v., infusion 1 hr, LLOQ 1 ng/mL): 3.95 ng/mL
concentration at 2 h [1, 9]: 6.03 ng/mL
concentration at 24 h [1, 9]: 1.73 ng/mL
concentration at 1 h ([1]; 3.3 mg/m^2, Day 15, 3.3 mg/m^2 i.v., infusion 1 hr, LLOQ 1 ng/mL): 14.7 ng/mL
concentration at 1 h [1, 10]: 6.84 ng/mL
concentration at 2 h [1, 10]: 3.8 ng/mL
concentration at 24 h [1, 10]: 1.48 ng/mL
concentration at 1 h [1, 11]: 10.6 ng/mL
concentration at 2 h [1, 11]: 10.4 ng/mL
concentration at 4 h [1, 11]: 8.24 ng/mL
concentration at 24 h ([1]; 4.5 mg/m^2, Day 1, 4.5 mg/m^2 i.v., infusion 2 hr, LLOQ 1 ng/mL): 1.17 ng/mL
concentration at 1 h [1, 12]: 13.6 ng/mL
concentration at 2 h [1, 12]: 13.1 ng/mL
Cmax ([1]; Day 1): ~14 ng/mL
Cmax ([1]; Day 15): ~26 ng/mL
bradycardia ([2]; Phase 1 Trial): occasional episodes of bradycardia
dose limiting toxicity ([2]; Phase 1 Trial): vascular in nature, manifested by an acute coronary syndrome
intratumor bleeding ([2]; Phase 1 Trial): incidences of intratumor bleeding
systolic blood pressure ([2]; Phase 1 Trial): dose-related increase
effects on cardiac conduction (PR, QRS or QTc) ([2]; Phase 1 Trial, ECG): no significant effects
cytotoxity peripherally ([2]; Phase 1 Trial, at the administered doses): no evidence of cytotoxity peripherally
safety and tolerability ([2]; Phase 1 Trial, weekly intravenous administration): safe and tolerable
dose ranges found to be safely tolerated ([2]; human patients): less than 3.3 mg/m^2
